Experimental data published in US20220289698A1, “INHIBITORS OF HUMAN ATGL” (Karl-Franzens-Universität Graz, priority 2019, published 2022).
Where two headings read alike, the source gives them in different places.

Columns and labels:
human ATGL = target: T1, human ATGL (Homo sapiens, UniProt Q96AD5); assay: TG hydrolase activity, Expi cell lysates expressing human ATGL + CGI-58, radiolabelled triolein; format: biochemical
T1 construct: made in house; host or cells: Expi cells (lysate, not purified)
T1 sequence (Q96AD5 1-504): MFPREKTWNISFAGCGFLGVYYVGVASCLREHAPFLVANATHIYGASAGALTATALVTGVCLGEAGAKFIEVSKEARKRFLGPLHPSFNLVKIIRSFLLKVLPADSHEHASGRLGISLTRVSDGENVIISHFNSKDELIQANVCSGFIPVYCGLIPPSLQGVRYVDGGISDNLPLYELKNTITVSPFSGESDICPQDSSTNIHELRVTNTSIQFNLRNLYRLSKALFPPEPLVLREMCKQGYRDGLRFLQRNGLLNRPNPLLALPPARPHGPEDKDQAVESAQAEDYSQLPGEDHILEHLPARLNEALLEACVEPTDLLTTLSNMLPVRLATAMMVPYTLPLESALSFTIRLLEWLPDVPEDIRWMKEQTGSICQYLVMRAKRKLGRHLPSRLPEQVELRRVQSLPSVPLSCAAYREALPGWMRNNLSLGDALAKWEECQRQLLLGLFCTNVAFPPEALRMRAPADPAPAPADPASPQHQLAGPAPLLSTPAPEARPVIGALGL
Summary of the method: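 Lysates of Expi cells expressing ATGL, supplemented with purified CGI-58 and inhibitor in DMSO, incubated 1 h at 37 °C with emulsified radiolabelled triolein (330 μM) in potassium phosphate pH 7.0 with 5% FA-free BSA. Released FA counted by liquid scintillation after phase extraction; IC50 versus DMSO control, duplicates.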

murine ATGL = target: T2, murine ATGL (Mus musculus, UniProt Q8BJ56); assay: TG hydrolase activity, Expi lysates expressing mouse ATGL + CGI-58, radiolabelled triolein; format: biochemical
T2 construct: made in house; host or cells: Expi cells (lysate)
T2 sequence (Q8BJ56 1-486): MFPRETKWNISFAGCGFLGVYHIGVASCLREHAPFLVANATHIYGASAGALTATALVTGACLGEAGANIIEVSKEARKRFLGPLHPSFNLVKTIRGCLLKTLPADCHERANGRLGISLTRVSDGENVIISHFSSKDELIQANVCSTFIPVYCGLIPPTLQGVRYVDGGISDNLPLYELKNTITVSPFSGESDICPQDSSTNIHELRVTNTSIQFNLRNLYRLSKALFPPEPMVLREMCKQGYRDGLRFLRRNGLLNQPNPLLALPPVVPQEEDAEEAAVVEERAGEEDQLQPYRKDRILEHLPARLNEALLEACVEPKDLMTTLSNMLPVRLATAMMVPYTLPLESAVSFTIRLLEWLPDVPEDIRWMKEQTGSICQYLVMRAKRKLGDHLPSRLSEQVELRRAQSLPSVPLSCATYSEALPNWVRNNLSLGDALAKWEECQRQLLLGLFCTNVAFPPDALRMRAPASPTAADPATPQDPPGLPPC
Summary of the method: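 Lysates of Expi cells overexpressing mouse ATGL, with added recombinant CGI-58, were incubated with inhibitor at 50 μM. Substrate was emulsified radiolabelled triolein with PC/PI in 100 mM potassium phosphate pH 7.0 and 5% FA-free BSA, 1 h at 37° C. Released FA were extracted and counted by scintillation; triplicates, DMSO control.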

[1] = Example 237, read-out: Inhibition of human ATGL − IC50
[2] = 50 μM compound, Example 237, read-out: Inhibition of murine ATGL at 50 μM − mean [%]
[3] = Example 238, read-out: Inhibition of human ATGL IC50
[4] = 50 μM, Example 238, read-out: % Inhibition of murine ATGL at 50 μM

| IC50 (human ATGL; [1]) | inhibition at 50 µM (murine ATGL; [2]) | melting point | IC50 (human ATGL; [3]) | inhibition at 50 µM (murine ATGL; [4]) | Structure (SMILES) |
| --- | --- | --- | --- | --- | --- |
| 6 µM | 18.6% | 65 to 70 °C |  |  | C=CCOC(=O)c1cccc(-c2ccc(OCC)cc2)n1 [Example 32] |
| 10 µM | 22.8% | 43 to 47 °C |  |  | CC(C)OC(=O)c1cccc(-c2ccc(OC(F)(F)F)cc2)n1 [Example 37] |
| 10 µM | 0% | 172 to 176 °C |  |  | CC(C)OC(=O)c1cccc(-c2ccc(-c3nc4ccccc4n3-c3ccccc3)cc2)n1 [Example 84] |
| 2 µM | 0% | 51 to 55 °C |  |  | CCCCc1ccc(-c2cccc(C(=O)OC(C)C)n2)cc1 [Example 94] |
|  |  | 90 to 93 °C | 30 µM | 75% | CCOc1ccc(-c2cccc(C(=O)OCc3ccsc3)n2)cc1 [Example 197, Thiophen-3-ylmethyl 6-(4-ethoxyphenyl)picolinate] |
| 2.5 µM | 0.1% | 53 to 55 °C |  |  | CCCCCCOc1ccc(-c2cc(OC)cc(C(=O)OC(C)C)n2)cc1 [Example 83] |
| 5 µM | 5.7% | 70 to 75 °C |  |  | CC(C)OC(=O)c1cccc(-c2ccc(OCC(F)(F)F)cc2)n1 [Example 38] |
| 15 µM | 16% | 71 to 75 °C |  |  | CC(=O)Oc1ccc(-c2cccc(C(=O)OC(C)C)n2)cc1 [Example 23] |
| 20 µM | 5.9% | 78 to 81 °C |  |  | CCCCOC(=O)c1cccc(-c2ccc(OCC)cc2)n1 [Example 2] |
|  |  | 97 to 101 °C | 20 µM | 82% | CCOc1ccc(-c2cccc(C(=O)OCc3ccoc3)n2)cc1 [Example 198, Furan-3-ylmethyl 6-(4-ethoxyphenyl)picolinate] |
| 8 µM | 9.6% | 105 to 107 °C |  |  | CC(C)OC(=O)c1cccc(-c2ccc(OC3CCCCO3)cc2)n1 (stereo not shown) [Example 36] |
| 12 µM | 6% | 80 to 84 °C |  |  | CCCOC(=O)c1cccc(-c2ccc(OCC)cc2)n1 [Example 31] |
| 6 µM | 0% | 56 to 62 °C |  |  | CCOC(=O)c1ccc(-c2cccc(C(=O)OC(C)C)n2)cc1 [Example 29] |
| 3 µM | 3.9% | 55 to 58 °C |  |  | COCc1ccc(-c2cccc(C(=O)OC(C)C)n2)cc1 [Example 19] |
| 5 µM | 0% | 114 to 115 °C |  |  | CCOc1ccc(-c2cccc(C(=O)OC3CC3)n2)cc1 [Example 21] |
| 8 µM | 0% | 49 to 51 °C |  |  | CCOc1ccc(-c2cccc(C(=O)OC(C)CC)n2)cc1 (stereo not shown) [Example 30] |
| 25 µM | 0% | 108 to 109 °C |  |  | CCOC(=O)c1cccc(-c2ccc(C#N)cc2)n1 [Example 88] |
| 12 µM | 23.1% | 94 to 103 °C |  |  | CCOc1ccc(-c2cc(OC)cc(C(=O)OC)n2)cc1 [Example 26] |
| 10 µM | 6.1% | 90 to 91 °C |  |  | CCOC(=O)c1cc(C)cc(-c2ccc(OCC)cc2)n1 [Example 14] |
| 15 µM | 31.8% | 76 to 78 °C |  |  | C#CCOC(=O)c1cccc(-c2ccc(OCC)cc2)n1 [Example 51] |
| 12 µM | 0% | 69 to 73 °C |  |  | CCOc1ccc(-c2cccc(C(=O)OC(C)(C)C)n2)cc1 [Example 28] |
| 3 µM | 18.1% | 46 to 47 °C |  |  | CCOCCOc1ccc(-c2cccc(C(=O)OC(C)C)n2)cc1 [Example 16] |

| IC50 (human ATGL; [1]) | inhibition at 50 µM (murine ATGL; [2]) | melting point | IC50 (human ATGL; [3]) | inhibition at 50 µM (murine ATGL; [4]) | Structure (SMILES) |
| --- | --- | --- | --- | --- | --- |
| 7 µM | 0% | 55 to 56 °C |  |  | COc1cc(C(=O)OC(C)C)nc(-c2ccc(C(F)(F)F)cc2)c1 [Example 58] |
| 3 µM | 0% | 90 to 93 °C |  |  | CCCOc1ccc(-c2cccc(C(=O)OC(C)C)n2)cc1 [Example 27] |
| 10 µM | 0% | 126 to 129 °C |  |  | CCS(=O)(=O)c1ccc(-c2cccc(C(=O)OC(C)C)n2)cc1 [Example 18] |
| 3 µM | 0% | 94 to 95 °C |  |  | CC(C)OC(=O)c1cccc(-c2ccc(Cl)cc2)n1 [Example 87] |
| 3 µM |  | 152 to 155 °C |  |  | COc1ccc(C#Cc2ccc(-c3cccc(C(=O)OC(C)C)n3)cc2)cc1 [Example 92] |
| 3 µM | 1.4% | 82 to 84 °C |  |  | CCc1ccc(-c2cccc(C(=O)OC(C)C)n2)cc1 [Example 55] |
| 6 µM | 0% | 45 to 46 °C |  |  | COCCOCCOc1ccc(-c2cccc(C(=O)OC(C)C)n2)cc1 [Example 15] |
|  |  | 59 to 61 °C | 5 µM |  | COc1ccc(-c2cc(OC)cc(C(=O)OC(C)C)n2)cc1 [Example 206, Isopropyl 4-methoxy-6-(4-methoxyphenyl)picolinate] |
| 25 µM | 0% | 68 to 69 °C |  |  | CCCCCCOc1ccc(-c2cccc(C(=O)OC)n2)cc1 [Example 89] |
| 10 µM |  | 65 to 68 °C |  |  | COCc1ccc(-c2cc(OC)cc(C(=O)OC)n2)cc1 [Example 40] |
| 3 µM | 0% | 90 to 92 °C |  |  | C#CC(C)OC(=O)c1cccc(-c2ccc(CCC)cc2)n1 (stereo not shown) [Example 70] |
| 2 µM |  | 88 to 89 °C |  |  | CC(C)OC(=O)c1cccc(-c2ccc(CCc3ccccc3)cc2)n1 [Example 67] |
| 3 µM | 0% | 63 to 65 °C |  |  | CCCCCOc1ccc(-c2cccc(C(=O)OC(C)C)n2)cc1 [Example 85] |
| 10 µM | 5.1% | 66 to 71 °C |  |  | CC(C)OC(=O)c1cccc(/C=C/c2ccccc2)n1 [Example 76] |
| 15 µM | 10.2% | 112 to 115 °C |  |  | CCOC(=O)c1csc(-c2ccc(OCc3ccccc3)cc2)n1 [Example 187, Ethyl 2-(4-(benzyloxy)phenyl)thiazole-4-carboxylate] |
| 3 µM |  | 110 °C |  |  | CCOc1ccc(-c2cccc(C(=O)OC/C=C/c3ccccc3)n2)cc1 [Example 73] |
| 6 µM |  | 93 to 96 °C |  |  | CCSc1ccc(-c2cccc(C(=O)OC(C)C)n2)cc1 [Example 64] |
| 25 µM | 0% | 129 to 131 °C |  |  | CC(C)OC(=O)c1cccc(-c2ccc(CO)cc2)n1 [Example 12] |
| 5 µM | 1.8% | 75 to 77 °C |  |  | COCCOc1ccc(-c2cccc(C(=O)OC(C)C)n2)cc1 [Example 11] |
| 3 µM |  | 79 to 81 °C |  |  | CCCOc1ccc(-c2cc(OC)cc(C(=O)OC(C)C)n2)cc1 [Example 59] |
| 10 µM | 9.1% | 89 to 94 °C |  |  | CCOC(=O)c1cccc(-c2ccc(OCCOC)cc2)n1 [Example 8] |
|  |  | 70 to 72 °C | 1 µM |  | [2H]C([2H])([2H])C([2H])(OC(=O)c1cc(OC)cc(-c2ccc(OC(C)C)cc2)n1)C([2H])([2H])[2H] [Example 204, Propan-2-yl-d7 6-(4-isopropoxyphenyl)-4-methoxypicolinate] |
